This is an account of results in patent US11608337B2, “Heterocyclic compounds as immunomodulators” (Incyte Corporation, priority 2016, dated 2023).

The target of the experiment is PD-1/PD-L1 protein/protein interaction (Homo sapiens (Human), UniProt Q9NZQ7). The experiment can be described thus: PD-1/PD-L1 Homogeneous Time-Resolved Fluorescence (HTRF) Binding Assay. The conditions noted are these: recombinant human PD-L1 (19-238) His-tag, human PD-1 (25-167) Fc tag; 25° C., PBS pH 7.4. As to the method: Example A. PD-1/PD-L1 Homogeneous Time-Resolved Fluorescence (HTRF) Binding Assay
Sequence of PD-1/PD-L1 protein/protein interaction (Q9NZQ7 19-238): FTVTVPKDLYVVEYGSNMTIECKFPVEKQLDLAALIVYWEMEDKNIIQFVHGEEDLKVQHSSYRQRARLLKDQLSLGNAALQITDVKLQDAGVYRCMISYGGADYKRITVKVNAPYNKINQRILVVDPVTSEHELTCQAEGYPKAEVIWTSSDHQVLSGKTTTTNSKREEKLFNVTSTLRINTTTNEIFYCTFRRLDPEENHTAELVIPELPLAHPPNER
The assays were conducted in a standard black 384-well polystyrene plate with a final volume of 20 μL. Inhibitors were first serially diluted in DMSO and then added to the plate wells before the addition of other reaction components. The final concentration of DMSO in the assay was 1%. The assays were carried out at 25° C. in the PBS buffer (pH 7.4) with 0.05% Tween-20 and 0.1% BSA. Recombinant human PD-L1 protein (19-238) with a His-tag at the C-terminus was purchased from AcroBiosystems (PD1-H5229). Recombinant human PD-1 protein (25-167) with Fc tag at the C-terminus was also purchased from AcroBiosystems (PD1-H5257). PD-L1 and PD-1 proteins were diluted in the assay buffer and 10 μL was added to the plate well. Plates were centrifuged and proteins were preincubated with inhibitors for 40 minutes. The incubation was followed by the addition of 10 μL of HTRF detection buffer supplemented with Europium cryptate-labeled anti-human IgG (PerkinElmer-AD0212) specific for Fc and anti-His antibody conjugated to SureLight®-Allophycocyanin (APC, PerkinElmer-AD0059H). After centrifugation, the plate was incubated at 25° C. for 60 min. before reading on a PHERAstar FS plate reader (665 nm/620 nm ratio). Final concentrations in the assay were […], 10 nM PD-L1, 1 nM europium anti-human IgG and 20 nM anti-His-Allophycocyanin. IC50 determination was performed by fitting the curve of percent control activity versus the log of the inhibitor concentration using the GraphPad Prism 5.0 software.
Data obtained for the Example compounds using the PD-1/PD-L homogenous time-resolved fluorescence (HTRF) binding assay described in Example A is provided in Table 1.
(In TR-FRET formats the signal depends on donor and acceptor labels being close together.)

As to `Cc1c(-c2ccccc2)cccc1-c1nc2c(s1)CN(C[C@@H]1C[C@H]1C(=O)O)CC2` (relative stereo) [Example 9, Trans-2-{[2-(2-methylbiphenyl-3-yl)-6,7-dihydro[1,3]thiazolo[5,4-c]pyridin-5(4H)-yl]methyl}cyclopropanecarboxylic acid], the IC50 was 100 to 500 nM. In the case of `Cc1c(-c2ccccc2)cccc1-c1nc2c(s1)CCNC2` [Example 1, 2-(2-methylbiphenyl-3-yl)-4,5,6,7-tetrahydro[1,3]thiazolo[4,5-c]pyridine], the IC50 was 500 to 10000 nM. As for `Cc1c(-c2ccccc2)cccc1-c1nc2c(s1)CNCC2` [Example 2, 2-(2-methylbiphenyl-3-yl)-4,5,6,7-tetrahydro[1,3]thiazolo[5,4-c]pyridine], the IC50 was not above 100 nM. Take `Cc1c(-c2ccccc2)cccc1-c1nc2c(s1)CN(C)CC2` [Example 3, 5-methyl-2-(2-methylbiphenyl-3-yl)-4,5,6,7-tetrahydro[1,3]thiazolo[5,4-c]pyridine]: the concentration for half-maximal inhibition (IC50) is not above 100 nM.

In the case of `Cc1c(-c2ccccc2)cccc1-c1nc2c(s1)CN(CCO)CC2` [Example 4, 2-[2-(2-methylbiphenyl-3-yl)-6,7-dihydro[1,3]thiazolo[5,4-c]pyridin-5(4H)-yl]ethanol], the half-maximal inhibitory concentration (IC50) is not above 100 nM. On to `Cc1c(-c2ccccc2)cccc1-c1nc2c(s1)CN(C[C@H](C)O)CC2` [Example 5, (2S)-1-[2-(2-methylbiphenyl-3-yl)-6,7-dihydro[1,3]thiazolo[5,4-c]pyridin-5(4H)-yl]propan-2-ol], for which the IC50 was not above 100 nM. Turning to `Cc1c(-c2ccccc2)cccc1-c1nc2c(s1)CN(C1CCOCC1)CC2` [Example 6, 2-(2-methylbiphenyl-3-yl)-5-(tetrahydro-2H-pyran-4-yl)-4,5,6,7-tetrahydro[1,3]thiazolo[5,4-c]pyridine], the IC50 lay within 100 to 500 nM.

In the case of `Cc1c(-c2ccccc2)cccc1-c1nc2c(s1)CN(C1CCC(C(=O)O)CC1)CC2` (centres unmarked) [Example 7, 4-[2-(2-methylbiphenyl-3-yl)-6,7-dihydro[1,3]thiazolo[5,4-c]pyridin-5(4H)-yl]cyclohexanecarboxylic acid], the IC50 is not above 100 nM.

Turning to `Cc1c(-c2ccccc2)cccc1-c1nc2c(s1)CN(CCCC(=O)O)CC2` [Example 8, 4-[2-(2-methylbiphenyl-3-yl)-6,7-dihydro[1,3]thiazolo[5,4-c]pyridin-5(4H)-yl]butanoic acid], the IC50 is not above 100 nM. With `Cc1c(-c2ccccc2)cccc1-c1nc2c(s1)CN(Cc1cn[nH]c1)CC2` [Example 10, 2-(2-methylbiphenyl-3-yl)-5-(1H-pyrazol-4-ylmethyl)-4,5,6,7-tetrahydro[1,3]thiazolo[5,4-c]pyridine] the figure was 100 to 500 nM; with `Cc1c(-c2ccccc2)cccc1-c1nc2c(s1)CN(C1CCC(CC#N)CC1)CC2` (centres unmarked) [Example 11, {4-[2-(2-methylbiphenyl-3-yl)-6,7-dihydro[1,3]thiazolo[5,4-c]pyridin-5(4H)-yl]cyclohexyl}acetonitrile], 100 to 500 nM.

Turning to `Cc1c(-c2ccccc2)cccc1-c1cc2n(n1)CCNC2` [Example 12, 2-(2-methylbiphenyl-3-yl)-4,5,6,7-tetrahydropyrazolo[1,5-a]pyrazine], the IC50 lay within 100 to 500 nM.

For the compound `N#Cc1c(-c2ccc3c(c2)OCCO3)cccc1-c1nc2c(s1)CNCC2` [Example 13, 2-(2,3-dihydro-1,4-benzodioxin-6-yl)-6-(4,5,6,7-tetrahydro[1,3]thiazolo[5,4-c]pyridin-2-yl)benzonitrile], the IC50 was not above 100 nM. Consider `Cc1c(-c2ccccc2)ccnc1-c1nc2c(s1)CNCC2` [Example 14, 2-(3-methyl-4-phenylpyridin-2-yl)-4,5,6,7-tetrahydro[1,3]thiazolo[5,4-c]pyridine], for which the 50% inhibitory concentration (IC50) is not above 100 nM. Turning to `COc1cccc(-c2ccnc(-c3nc4c(s3)CNCC4)c2C)c1` [Example 15, 2-[4-(3-methoxyphenyl)-3-methylpyridin-2-yl]-4,5,6,7-tetrahydro[1,3]thiazolo[5,4-c]pyridine], the concentration for half-maximal inhibition (IC50) is not above 100 nM. With `Cc1c(-c2ccc3c(c2)OCCO3)ccnc1-c1nc2c(s1)CNCC2` [Example 16, 2-[4-(2,3-dihydro-1,4-benzodioxin-6-yl)-3-methylpyridin-2-yl]-4,5,6,7-tetrahydro[1,3]thiazolo[5,4-c]pyridine] the figure was not above 100 nM; with `Cc1c(-c2ccccc2)cccc1-n1cc2c(n1)CCNC2` [Example 17, 2-(2-methylbiphenyl-3-yl)-4,5,6,7-tetrahydro-2H-pyrazolo[4,3-c]pyridine], 100 to 500 nM. `Cc1c(-c2ccccc2)cccc1-n1cc2c(n1)CNCC2` [Example 18, 2-(2-methylbiphenyl-3-yl)-4,5,6,7-tetrahydro-2H-pyrazolo[3,4-c]pyridine]: the IC50 was not above 100 nM. Turning to `Cc1c(-c2ccccc2)cccc1-c1nc2c(s1)CNCC2(C)C` [Example 19, 7,7-dimethyl-2-(2-methylbiphenyl-3-yl)-4,5,6,7-tetrahydro[1,3]thiazolo[5,4-c]pyridine], the IC50 was in the range of 500 to 10000 nM. To `Cc1c(-c2ccccc2)cccc1-c1cn2c(n1)CNCC2` [Example 20, 2-(2-methylbiphenyl-3-yl)-5,6,7,8-tetrahydroimidazo[1,2-a]pyrazine] belongs 500 to 10000 nM. Take `Cc1c(-c2ccccc2)cccc1-c1nc2c([nH]1)CCNC2` [Example 21, 2-(2-methylbiphenyl-3-yl)-4,5,6,7-tetrahydro-1H-imidazo[4,5-c]pyridine]: the IC50 fell in the range of 500 to 10000 nM. For `Cc1c(-c2ccccc2)cccc1-c1nc2c(o1)CNCC2` [Example 22, 2-(2-methylbiphenyl-3-yl)-4,5,6,7-tetrahydro[1,3]oxazolo[5,4-c]pyridine], the IC50 was not above 100 nM. In the case of `Cc1c(-c2ccccc2)cccc1-c1nc2c(o1)CCNC2` [Example 23, 2-(2-methylbiphenyl-3-yl)-4,5,6,7-tetrahydro[1,3]oxazolo[4,5-c]pyridine], the IC50 is not above 100 nM.

Take `Cc1c(-c2ccccc2)cccc1-c1nc2c(o1)CCN(C)C2` [Example 24, 5-methyl-2-(2-methylbiphenyl-3-yl)-4,5,6,7-tetrahydro[1,3]oxazolo[4,5-c]pyridine]: the IC50 was not above 100 nM. `Cc1c(-c2ccccc2)cccc1-c1nc2n(n1)CCNC2` [Example 25, 2-(2-methylbiphenyl-3-yl)-5,6,7,8-tetrahydro[1,2,4]triazolo[1,5-a]pyrazine]: the IC50 is 100 to 500 nM.

Regarding `Cc1c(-c2nc3c(s2)CNCC3)ccnc1-c1ccc2c(c1)OCCO2` [Example 26, 2-[2-(2,3-dihydro-1,4-benzodioxin-6-yl)-3-methylpyridin-4-yl]-4,5,6,7-tetrahydro[1,3]thiazolo[5,4-c]pyridine], the concentration for half-maximal inhibition (IC50) lay in the range of 500 to 10000 nM. As to `Cc1c(-c2ccsc2)cccc1-c1nc2c(s1)CNCC2` [Example 27, 2-[2-methyl-3-(3-thienyl)phenyl]-4,5,6,7-tetrahydro[1,3]thiazolo[5,4-c]pyridine], the IC50 fell in the range of 100 to 500 nM.

Take `COc1cccc(-c2cccc(-c3nc4c(s3)CNCC4)c2C)c1` [Example 28, 2-(3′-methoxy-2-methylbiphenyl-3-yl)-4,5,6,7-tetrahydro[1,3]thiazolo[5,4-c]pyridine]: the IC50 was not above 100 nM. In the case of `Cc1c(C2=CCOCC2)cccc1-c1nc2c(s1)CNCC2` [Example 29, 2-[3-(3,6-dihydro-2H-pyran-4-yl)-2-methylphenyl]-4,5,6,7-tetrahydro[1,3]thiazolo[5,4-c]pyridine], the IC50 was in the range of 500 to 10000 nM. As for `COc1cc(-c2cccc(-c3nc4c(s3)CNCC4)c2C)ccn1` [Example 30, 2-[3-(2-methoxypyridin-4-yl)-2-methylphenyl]-4,5,6,7-tetrahydro[1,3]thiazolo[5,4-c]pyridine], the IC50 fell in the range of 100 to 500 nM. In the case of `Cc1c(-c2ccc(F)cn2)cccc1-c1nc2c(s1)CNCC2` [Example 31, 2-[3-(5-fluoropyridin-2-yl)-2-methylphenyl]-4,5,6,7-tetrahydro[1,3]thiazolo[5,4-c]pyridine], the IC50 fell in the range of 500 to 10000 nM. With `Cc1c(C2=CCCCC2)cccc1-c1nc2c(s1)CNCC2` [Example 32, 2-(3-cyclohex-1-en-1-yl-2-methylphenyl)-4,5,6,7-tetrahydro[1,3]thiazolo[5,4-c]pyridine], the IC50 is not above 100 nM. In the case of `CCOc1cccc(-c2cccc(-c3nc4c(s3)CNCC4)c2C)c1` [Example 33, 2-(3′-ethoxy-2-methylbiphenyl-3-yl)-4,5,6,7-tetrahydro[1,3]thiazolo[5,4-c]pyridine], the half-maximal inhibitory concentration (IC50) was not above 100 nM. To `COc1cc(OC)cc(-c2cccc(-c3nc4c(s3)CNCC4)c2C)c1` [Example 34, 2-(3′,5′-dimethoxy-2-methylbiphenyl-3-yl)-4,5,6,7-tetrahydro[1,3]thiazolo[5,4-c]pyridine] belongs not above 100 nM; to `N#Cc1c(-c2ccc3c(c2)OCCO3)ccnc1-c1nc2c(s1)CNCC2` [Example 35, 4-(2,3-dihydro-1,4-benzodioxin-6-yl)-2-(4,5,6,7-tetrahydro[1,3]thiazolo[5,4-c]pyridin-2-yl)nicotinonitrile], 100 to 500 nM.

A word on the IC50: it is the concentration that gives 50% inhibition.
